Experimental data as given in publication PMC3612716 (British Journal of Clinical Pharmacology, 2012).

Assays:
healthy subjects [1] = test: Safety and tolerability; type: in vivo, human; settings: ITT population, by treatment
healthy subjects [2] = test: Thorough QT study: ECG; settings: positive control
[3] = system: patients with type 2 diabetes / healthy subjects; settings: previous findings; cited from earlier work

Compound | subjects experiencing adverse events (healthy subjects [1]) | LS mean ΔΔQTcP (two-sided 90% CI) (healthy subjects [2]; 1 h following single 400 mg oral dose) | LS mean ΔΔQTcP (two-sided 90% CI) (healthy subjects [2]; 2 h following single 400 mg oral dose) | LS mean ΔΔQTcP (two-sided 90% CI) (healthy subjects [2]; 3 h following single 400 mg oral dose) | changes in QTc at therapeutic concentrations [3]
COc1c(N2C[C@@H]3CCCN[C@@H]3C2)c(F)cc2c(=O)c(C(=O)O)cn(C3CC3)c12 [moxifloxacin] | 23% | 5.47 (2.82, 8.12) ms | 10.56 (8.46, 12.67) ms | 10.93 (8.71, 13.13) | 
liraglutide |  |  |  |  | no clinically meaningful changes in QTc
